Tested on: Histophilus somni
Assay: minimum inhibitory concentration (MIC)
Procedure: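 Broth microdilution MIC (Sensititre BOPO7F bovine plate, CLSI methods) of 19 antimicrobials against field isolates of P. multocida, M. haemolytica, H. somni (deep nasopharyngeal swabs) and E. coli, Enterococcus spp. (rectal swabs) from weaned dairy heifers. Incubation 16-24 h at 35 C. MIC is the lowest concentration preventing visible growth. Values with <= or > lie at the tested range limits. Trimethoprim-sulfamethoxazole is given as the trimethoprim component of a 1:19 mixture.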

Measured: minimum inhibitory concentration

CCN1CCN(c2cc3c(cc2F)c(=O)c(C(=O)O)cn3C2CC2)CC1 [Enrofloxacin]
≤ 0.12 µg/mL: isolate (source animal id): 3 | isolate (source animal id): 4 | isolate (source animal id): 7 | isolate (source animal id): 14 | isolate (source animal id): 15 | isolate (source animal id): 17 | isolate (source animal id): 18 | isolate (source animal id): 20 | isolate (source animal id): 23 | isolate (source animal id): 45 | isolate (source animal id): 53 | isolate (source animal id): 83 | isolate (source animal id): 88 | isolate (source animal id): 92 | isolate (source animal id): 93 | isolate (source animal id): 99 | isolate (source animal id): 100 | isolate (source animal id): 105 | isolate (source animal id): 107 | isolate (source animal id): 108 | isolate (source animal id): 109 | isolate (source animal id): 110 | isolate (source animal id): 117 | isolate (source animal id): 121 | isolate (source animal id): 123 | isolate (source animal id): 124 | isolate (source animal id): 127 | isolate (source animal id): 128 | isolate (source animal id): 130 | isolate (source animal id): 132 | isolate (source animal id): 135 | isolate (source animal id): 140 | isolate (source animal id): 141 | isolate (source animal id): 142 | isolate (source animal id): 144 | isolate (source animal id): 146 | isolate (source animal id): 147 | isolate (source animal id): 151 | isolate (source animal id): 153 | isolate (source animal id): 154 | isolate (source animal id): 156 | isolate (source animal id): 157 | isolate (source animal id): 176 | isolate (source animal id): 183 | isolate (source animal id): 186 | isolate (source animal id): 196 | isolate (source animal id): 198 | isolate (source animal id): 200 | isolate (source animal id): 206 | isolate (source animal id): 208 | isolate (source animal id): 210 | isolate (source animal id): 212 | isolate (source animal id): 215 | isolate (source animal id): 216 | isolate (source animal id): 218 | isolate (source animal id): 219 | isolate (source animal id): 224 | isolate (source animal id): 228 | isolate (source animal id): 230 | isolate (source animal id): 233 | isolate (source animal id): 238 | isolate (source animal id): 239 | isolate (source animal id): 241 | isolate (source animal id): 242 | isolate (source animal id): 243 | isolate (source animal id): 245 | isolate (source animal id): 246 | isolate (source animal id): 247 | isolate (source animal id): 248 | isolate (source animal id): 250 | isolate (source animal id): 251 | isolate (source animal id): 252 | isolate (source animal id): 254 | isolate (source animal id): 258 | isolate (source animal id): 259 | isolate (source animal id): 262 | isolate (source animal id): 264 | isolate (source animal id): 265 | isolate (source animal id): 266 | isolate (source animal id): 267 | isolate (source animal id): 269 | isolate (source animal id): 271 | isolate (source animal id): 272 | isolate (source animal id): 274 | isolate (source animal id): 276 | isolate (source animal id): 278 | isolate (source animal id): 280 | isolate (source animal id): 281 | isolate (source animal id): 283 | isolate (source animal id): 288 | isolate (source animal id): 291 | isolate (source animal id): 292 | isolate (source animal id): 296 | isolate (source animal id): 306 | isolate (source animal id): 336 | isolate (source animal id): 337 | isolate (source animal id): 341

From the supplement of paper PMC8612539
